Measurements from patent US8952024B2, “Herbicidal pyrimidone derivatives” (E I du Pont de Nemours and Company, priority 2009, dated 2015).

Assays:
Experiment in all cases: Test D pre-/postemergence plant response
Type in all cases: in vivo
Details in all cases: Postemergence
[1] = test system: itchgrass (Rottboellia cochinchinensis)
Summary of the method: (§1)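 Under greenhouse conditions for 14 to 21 days, plants treated pre- or postemergence with surfactant-formulated compound were compared by eye with untreated controls and scored 0–100 (100 = complete control; dash = no result).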

[2] = test system: johnsongrass (Sorghum halepense)
Summary of the method: as §1

[3] = test system: prickly sida (Sida spinosa)
Summary of the method: as §1

[4] = test system: bluegrass (annual bluegrass, Poa annua)
Summary of the method: as §1

[5] = test system: green foxtail (Setaria viridis)
Summary of the method: as §1

[6] = test system: barnyardgrass (Echinochloa crus-galli)
Summary of the method: as §1

[7] = test system: dayflower (Virginia (VA) dayflower, Commelina virginica)
Summary of the method: as §1

[8] = test system: dallisgrass (Paspalum dilatatum)
Summary of the method: as §1

kochia (Kochia scoparia) = test system: kochia (Kochia scoparia)
Summary of the method: as §1

[9] = test system: goosegrass (Eleusine indica)
Summary of the method: as §1

[10] = test system: sandbur (southern sandbur, Cenchrus echinatus)
Summary of the method: as §1

[11] = test system: mallow (common mallow, Malva sylvestris)
Summary of the method: as §1

[12] = test system: spanishneedles (Bidens bipinnata)
Summary of the method: as §1

[13] = test system: ragweed (common ragweed, Ambrosia elatior)
Summary of the method: as §1

[14] = 125 g ai/ha, scale 0 to 100 (0 no effect, 100 complete control)
[15] = 250 g ai/ha, scale 0 to 100 (0 no effect, 100 complete control)
[16] = 62 g ai/ha, scale 0 to 100 (0 no effect, 100 complete control)

## COCCCn1c(-c2cc(F)cc(F)c2)ncc(C(=O)C2=C(O)C3CCC(C3)C2=O)c1=O (centres unmarked) [Compound 244]
[1]; 31 g ai/ha, scale 0 to 100
  Plant response rating, Itchgrass: 60
[1]; [14]
  Plant response rating, Itchgrass: 75
[1]; [15]
  Plant response rating, Itchgrass: 75
[1]; [16]
  Plant response rating, Itchgrass: 70
[2]; 31 g ai/ha, scale 0 to 100
  Plant response rating, Johnsongrass: 70
[2]; [14]
  Plant response rating, Johnsongrass: 75
[2]; [15]
  Plant response rating, Johnsongrass: 75
[2]; [16]
  Plant response rating, Johnsongrass: 70
[3]; 31 g ai/ha, scale 0 to 100
  Plant response rating, Prickly Sida: 25
[3]; [14]
  Plant response rating, Prickly Sida: 40
[3]; [15]
  Plant response rating, Prickly Sida: 60
[3]; [16]
  Plant response rating, Prickly Sida: 35
[4]; 31 g ai/ha, scale 0 to 100
  Plant response rating, Bluegrass: 0
[4]; [14]
  Plant response rating, Bluegrass: 10
[4]; [15]
  Plant response rating, Bluegrass: 20
[4]; [16]
  Plant response rating, Bluegrass: 10
[5]; 31 g ai/ha, scale 0 to 100
  Plant response rating, Foxtail, Green: 75
[5]; [14]
  Plant response rating, Foxtail, Green: 95
[5]; [15]
  Plant response rating, Foxtail, Green: 100
[5]; [16]
  Plant response rating, Foxtail, Green: 90
[6]; 31 g ai/ha, scale 0 to 100
  Plant response rating, Barnyardgrass: 80
[6]; [14]
  Plant response rating, Barnyardgrass: 85
[6]; [15]
  Plant response rating, Barnyardgrass: 90
[6]; [16]
  Plant response rating, Barnyardgrass: 80
[7]; 31 g ai/ha, scale 0 to 100
  Plant response rating, Dayflower, VA: 30
[7]; [14]
  Plant response rating, Dayflower, VA: 65
[7]; [15]
  Plant response rating, Dayflower, VA: 70
[7]; [16]
  Plant response rating, Dayflower, VA: 50
[8]; 31 g ai/ha, scale 0 to 100
  Plant response rating, Dallisgrass: 40
[8]; [14]
  Plant response rating, Dallisgrass: 75
[8]; [15]
  Plant response rating, Dallisgrass: 80
[8]; [16]
  Plant response rating, Dallisgrass: 75
Kochia (Kochia scoparia); 31 g ai/ha, scale 0 to 100
  Plant response rating, Kochia: 25
Kochia (Kochia scoparia); [14]
  Plant response rating, Kochia: 50
Kochia (Kochia scoparia); [15]
  Plant response rating, Kochia: 65
Kochia (Kochia scoparia); [16]
  Plant response rating, Kochia: 50
[9]; 31 g ai/ha, scale 0 to 100
  Plant response rating, Goosegrass: 50
[9]; [14]
  Plant response rating, Goosegrass: 70
[9]; [15]
  Plant response rating, Goosegrass: 70
[9]; [16]
  Plant response rating, Goosegrass: 60
[10]; 31 g ai/ha, scale 0 to 100
  Plant response rating, Sandbur: 70
[10]; [14]
  Plant response rating, Sandbur: 75
[10]; [15]
  Plant response rating, Sandbur: 75
[10]; [16]
  Plant response rating, Sandbur: 70
[11]; 31 g ai/ha, scale 0 to 100
  Plant response rating, Mallow: 50
[11]; [14]
  Plant response rating, Mallow: 60
[11]; [15]
  Plant response rating, Mallow: 70
[11]; [16]
  Plant response rating, Mallow: 50
[12]; 31 g ai/ha, scale 0 to 100
  Plant response rating, Spanishneedles: 65
[12]; [14]
  Plant response rating, Spanishneedles: 75
[12]; [15]
  Plant response rating, Spanishneedles: 75
[12]; [16]
  Plant response rating, Spanishneedles: 65
[13]; 31 g ai/ha, scale 0 to 100
  Plant response rating, Ragweed: 65
[13]; [14]
  Plant response rating, Ragweed: 80
[13]; [15]
  Plant response rating, Ragweed: 85
[13]; [16]
  Plant response rating, Ragweed: 70
